According to patent US8067586B2, “Fused heteroaryl derivatives” (Astellas Pharma Inc., priority 2000, dated 2011):

Molecular target: bovine p110α (Bos taurus, UniProt P32871)
Assay: Inhibition of PI3K (p110α subtype)
Assay type: biochemical
Details: not given

bovine p110α, sequence (P32871 whole entry): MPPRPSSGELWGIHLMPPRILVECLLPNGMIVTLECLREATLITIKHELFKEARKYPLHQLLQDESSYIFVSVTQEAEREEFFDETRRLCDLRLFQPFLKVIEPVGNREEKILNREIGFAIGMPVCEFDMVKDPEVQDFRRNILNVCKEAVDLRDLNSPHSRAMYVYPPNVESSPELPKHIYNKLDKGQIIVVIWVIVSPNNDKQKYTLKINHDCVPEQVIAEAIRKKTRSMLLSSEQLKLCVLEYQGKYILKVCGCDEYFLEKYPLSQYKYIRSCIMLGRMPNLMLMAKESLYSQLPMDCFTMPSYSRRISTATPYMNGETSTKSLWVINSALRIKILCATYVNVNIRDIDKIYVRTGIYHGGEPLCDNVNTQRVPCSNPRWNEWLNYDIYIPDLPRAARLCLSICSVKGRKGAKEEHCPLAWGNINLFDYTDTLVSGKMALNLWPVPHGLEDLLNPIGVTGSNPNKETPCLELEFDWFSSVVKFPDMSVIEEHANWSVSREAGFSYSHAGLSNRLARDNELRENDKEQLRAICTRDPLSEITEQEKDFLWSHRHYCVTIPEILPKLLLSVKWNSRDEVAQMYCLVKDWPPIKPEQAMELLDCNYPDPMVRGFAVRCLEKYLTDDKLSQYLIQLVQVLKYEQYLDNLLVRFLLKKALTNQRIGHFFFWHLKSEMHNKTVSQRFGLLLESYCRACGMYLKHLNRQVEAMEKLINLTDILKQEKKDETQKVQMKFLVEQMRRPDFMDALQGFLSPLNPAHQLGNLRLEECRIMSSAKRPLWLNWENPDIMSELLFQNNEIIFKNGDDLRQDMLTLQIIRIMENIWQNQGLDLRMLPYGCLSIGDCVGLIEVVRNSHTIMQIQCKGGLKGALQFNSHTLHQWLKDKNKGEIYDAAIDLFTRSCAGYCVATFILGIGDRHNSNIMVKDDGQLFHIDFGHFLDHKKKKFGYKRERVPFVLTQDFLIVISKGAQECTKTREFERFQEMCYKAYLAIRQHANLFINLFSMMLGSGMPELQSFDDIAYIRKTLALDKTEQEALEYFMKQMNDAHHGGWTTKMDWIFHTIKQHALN

| Structure (SMILES) | IC50 [nM] |
| --- | --- |
| Nc1ccc(C(=O)Nc2cccc(-c3nc(N4CCOCC4)c4oc5ncccc5c4n3)c2)cn1 [Co 17, 6-amino-3′-(4-morpholinopyrido[3′,2′:4,5]furo[3,2-d]pyrimidin-2-yl)nicotinanilide] | < 1000 |

Same assay, conditions: bovine p110α, 37° C. for 15 minutes; read-out: IC50, p110α subtype inhibition

| Structure (SMILES) | IC50 [nM] |
| --- | --- |
| O=C(Nc1cccc(-c2nc(N3CCOCC3)c3oc4ncccc4c3n2)c1)c1ccccn1 [Co 10] | < 1000 |

System: A375 cells
Assay: Melanoma cell growth inhibition (Alamar Blue)
Assay type: cell-based
Details: Homo sapiens, A-375, incubation for over 46 hours
Procedure: A375 cells from a melanoma cell line were cultured in DMEM medium (GIBCO) supplemented with 10% fetal bovine serum. A375 cells at 10,000 cells/100 μl were added to a 96 well plate which contained 1 μl/well of the test compounds (final concentration of 0.001˜30 μM). After incubation for over 46 hours, Alamar Blue reagent was added to the medium (10 μl/well).

| Structure (SMILES) | IC50 [nM] |
| --- | --- |
| Nc1ccc(-c2nc(N3CCOCC3)c3oc4ncccc4c3n2)cc1 [Co 33, 4-(4-morpholinopyrido[3′,2′:4,5]furo[3,2-d]pyrimidin-2-yl)aniline] | 330 to 4260 |
| COc1ccc2nc(-c3cccc(O)c3)nc(N3CCOCC3)c2c1 [Co 186, 3-(6-methoxy-4-morpholinoquinazolin-2-yl)phenol] | 330 to 4260 |
| Oc1cccc(-c2nc(N3CCOCC3)c3ccncc3n2)c1 [Co 174, 3-(4-morpholinopyrido[3,4-d]pyrimidin-2-yl)phenol] | 330 to 4260 |
| Oc1cccc(-c2nc(N3CCOCC3)c3nccnc3n2)c1 [Co 191, 3-(4-morpholinopteridin-2-yl)phenol] | 330 to 4260 |
| c1cc(OCCN2CCNCC2)cc(-c2nc(N3CCOCC3)c3oc4ncccc4c3n2)c1 [Co 69, 4-morpholino-2-[3-(2-piperazin-1-ylethoxy)phenyl]pyrido[3′,2′:4,5]furo[3,2-d]pyrimidine] | 330 to 4260 |
| Oc1cccc(-c2nc(N3CCOCC3)c3sccc3n2)c1 [Co 190, 3-(4-morpholinothieno[3,2-d]pyrimidin-2-yl)phenol] | 330 to 4260 |
| Oc1cccc(-c2nc(N3CCOCC3)c3oc4ncccc4c3n2)c1 [Co 50, 3-(4-morpholinopyrido[3′,2′:4,5]furo[3,2-d]pyrimidin-2-yl)phenol] | 330 to 4260 |
| Oc1cccc(-c2nc(N3CCOCC3)c3ncccc3n2)c1 [Co 172, 3-(4-morpholinopyrido[3,2-d]pyrimidin-2-yl)phenol] | 330 to 4260 |
| Oc1cccc(-c2nc(N3CCOCC3)c3cnccc3n2)c1 [Co 164, 3-(4-morpholinopyrido[4,3-d]pyrimidin-2-yl)phenol] | 330 to 4260 |
